What is called inhibition is the drop in the measured response relative to a control, in per cent.

The source of these data is patent US20220388979A1, “QUINOLINE DERIVATIVES AS PROTEIN KINASE INHIBITORS” (B.C.I. PHARMA, priority 2019, published 2022).

One assay relates to M-NFS-60 cells. Nature of the assay: Cell proliferation in M-NFS-60 leukemia cell line (WST-1). The class given is cell-based. Particulars: for IC50: cell proliferation, 72 h, WST-1, read-out: M-NFS-60 IC 50. As to the method: M-NFS-60: Exponential growing M-NFS-60 cells (ATCC, CRL-1838) were seeded at […]per 200 μl of complete medium with beta-mercaptoethanol and M-CSF (62 ng/mL) or IL34 (500 ng/mL). Twenty μL of test compound dilution were added to each well and the plates were incubated for 72 h at 37° C., 5% CO2. Untreated cells and positive control (0.5% triton X-100, for the last 15 min) served as reference for maximum and minimum viability. At the end of incubation 100 μl of supernatant were removed and replaced by 10 μl of WST-1 solution (Cell Proliferation Reagent WST-1, Roche Applied Science). After 3 h incubation at 37° C., 5% CO2, optical densities were measured at 450 nm and 620 nm for the background on microplate reader (Envision 2105, Perkinelmer).
(§1) IC50 were measured and experiments were performed at least in duplicate.
(§2) Cell-based assays of compounds CC395-CC397, depicted above, against M-NFS-60 and HEK-CSF1R have been performed following the procedures described in example 29 and 30 and compared with their quinoline analogues 32, 44 and 108.

In assay [1] the target is T1, CSF1R (Homo sapiens, UniProt P07333). Put plainly: HEK-CSF1R-STAT5-Luc reporter assay, M-CSF stimulated. The assay is classed as cell-based. Further details: host or cells: HEK293T (ATCC CRL-3216). The note with it: for IC50: 600 ng/ml M-CSF, 24 h, luciferase, read-out: HEK-CSF1R-STAT5 IC 50. As for the experimental part: HEK-CSF1R-STAT5-Luc: Exponential growing HEK293T cells (ATCC® CRL-3216™), ectopically expressing human CSF1R receptor (Origene) and five copies of a STAT5 response element (STAT5 RE, promega) that drives transcription of the luciferase reporter were seeded at 5·10^3 per 20 μl of complete DMEM medium. The next day, 2.25 μL of test compound dilution were added to each well and stimulated with 600 ng/ml of M-CSF. The plates were incubated for 24 h at 37° C., 5% CO2. Unstimulated and stimulated cells served as reference for […]. At the end of incubation 25 μl of Steady-Glo® Luciferase Assay System (Promega) were added after 5 min of lysis, luminescence was measured on microplate reader (Envision 2105, Perkinelmer).
T1 sequence (P07333 20-972): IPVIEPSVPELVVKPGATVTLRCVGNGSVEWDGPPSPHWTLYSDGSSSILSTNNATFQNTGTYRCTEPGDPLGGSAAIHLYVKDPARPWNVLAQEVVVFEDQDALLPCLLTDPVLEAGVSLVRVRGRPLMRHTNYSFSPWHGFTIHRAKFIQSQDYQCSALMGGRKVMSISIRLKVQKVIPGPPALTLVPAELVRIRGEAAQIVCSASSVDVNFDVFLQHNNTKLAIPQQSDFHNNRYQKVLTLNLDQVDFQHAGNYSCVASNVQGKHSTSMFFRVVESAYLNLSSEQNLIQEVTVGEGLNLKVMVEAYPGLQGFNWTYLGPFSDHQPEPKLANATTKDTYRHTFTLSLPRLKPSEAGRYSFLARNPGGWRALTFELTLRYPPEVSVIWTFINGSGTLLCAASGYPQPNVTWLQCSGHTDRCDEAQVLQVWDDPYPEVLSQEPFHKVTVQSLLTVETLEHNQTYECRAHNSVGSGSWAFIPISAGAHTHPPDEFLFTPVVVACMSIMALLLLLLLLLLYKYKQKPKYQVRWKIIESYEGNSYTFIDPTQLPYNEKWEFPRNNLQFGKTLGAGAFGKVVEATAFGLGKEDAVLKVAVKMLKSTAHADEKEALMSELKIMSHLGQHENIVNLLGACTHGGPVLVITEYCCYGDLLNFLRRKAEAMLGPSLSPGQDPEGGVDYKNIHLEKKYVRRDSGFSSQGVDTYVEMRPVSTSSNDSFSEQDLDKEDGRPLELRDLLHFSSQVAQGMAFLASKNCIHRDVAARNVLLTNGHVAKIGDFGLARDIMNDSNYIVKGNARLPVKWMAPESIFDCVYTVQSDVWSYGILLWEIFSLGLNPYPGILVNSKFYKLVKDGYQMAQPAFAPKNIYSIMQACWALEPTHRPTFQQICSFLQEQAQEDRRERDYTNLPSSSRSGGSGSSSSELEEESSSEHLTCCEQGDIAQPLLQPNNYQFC
as §1, §2
On the technique in general: In a reporter assay the amount or activity of a reporter protein is the signal.

The next assay deals with Kit (Homo sapiens, UniProt P10721). Put plainly: Z'-Lyte biochemical kinase assay (SelectScreen), Kit. The note with it: at 50 nM, in duplicate. As for the experimental part: (§3) A biochemical assay was performed in order to measure the protein kinase inhibition. The kinase binding assays were performed against different kinases using the SelectScreen Biochemical Kinase Profiling Service® platform (Thermo Fisher Scientific). For all kinases, the Z′-Lyte® biochemical kinase assay technology was used. Inhibitions were measured at 50 nM in duplicate for each compound and are reported in percentage.
Kit, sequence (P10721 26-976): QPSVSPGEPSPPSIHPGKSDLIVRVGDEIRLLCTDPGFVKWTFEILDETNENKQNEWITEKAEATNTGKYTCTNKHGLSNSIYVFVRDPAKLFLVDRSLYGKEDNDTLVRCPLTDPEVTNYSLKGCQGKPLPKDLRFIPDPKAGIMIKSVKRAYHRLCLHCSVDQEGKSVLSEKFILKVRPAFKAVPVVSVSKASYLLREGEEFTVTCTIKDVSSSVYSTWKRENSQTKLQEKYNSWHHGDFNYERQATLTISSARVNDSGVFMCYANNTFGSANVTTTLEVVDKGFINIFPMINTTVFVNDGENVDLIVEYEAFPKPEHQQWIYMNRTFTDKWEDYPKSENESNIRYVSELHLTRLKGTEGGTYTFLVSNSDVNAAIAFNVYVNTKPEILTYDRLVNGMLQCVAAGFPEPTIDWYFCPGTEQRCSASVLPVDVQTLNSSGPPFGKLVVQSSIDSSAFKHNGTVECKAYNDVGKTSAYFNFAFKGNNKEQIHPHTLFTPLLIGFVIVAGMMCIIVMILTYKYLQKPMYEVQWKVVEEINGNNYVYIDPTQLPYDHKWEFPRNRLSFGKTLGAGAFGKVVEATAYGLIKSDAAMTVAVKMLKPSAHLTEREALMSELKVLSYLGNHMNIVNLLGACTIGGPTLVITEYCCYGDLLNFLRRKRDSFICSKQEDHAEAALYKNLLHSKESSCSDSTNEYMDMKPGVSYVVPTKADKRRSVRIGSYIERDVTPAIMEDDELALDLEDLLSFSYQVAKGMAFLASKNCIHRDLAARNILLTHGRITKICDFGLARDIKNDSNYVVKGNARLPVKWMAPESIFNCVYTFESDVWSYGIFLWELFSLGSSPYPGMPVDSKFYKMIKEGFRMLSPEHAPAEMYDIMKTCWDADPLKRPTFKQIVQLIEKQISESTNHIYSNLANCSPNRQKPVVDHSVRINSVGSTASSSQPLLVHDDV

The target in assay [2] is T1, CSF1R. Nature of the assay: Z'-Lyte biochemical kinase assay (SelectScreen), CSF1R. The note with it: at 50 nM, in duplicate. As for the experimental part:
as §3

The next assay deals with T2, FLT3 (Homo sapiens, UniProt P36888).
T2 sequence (P36888 27-993): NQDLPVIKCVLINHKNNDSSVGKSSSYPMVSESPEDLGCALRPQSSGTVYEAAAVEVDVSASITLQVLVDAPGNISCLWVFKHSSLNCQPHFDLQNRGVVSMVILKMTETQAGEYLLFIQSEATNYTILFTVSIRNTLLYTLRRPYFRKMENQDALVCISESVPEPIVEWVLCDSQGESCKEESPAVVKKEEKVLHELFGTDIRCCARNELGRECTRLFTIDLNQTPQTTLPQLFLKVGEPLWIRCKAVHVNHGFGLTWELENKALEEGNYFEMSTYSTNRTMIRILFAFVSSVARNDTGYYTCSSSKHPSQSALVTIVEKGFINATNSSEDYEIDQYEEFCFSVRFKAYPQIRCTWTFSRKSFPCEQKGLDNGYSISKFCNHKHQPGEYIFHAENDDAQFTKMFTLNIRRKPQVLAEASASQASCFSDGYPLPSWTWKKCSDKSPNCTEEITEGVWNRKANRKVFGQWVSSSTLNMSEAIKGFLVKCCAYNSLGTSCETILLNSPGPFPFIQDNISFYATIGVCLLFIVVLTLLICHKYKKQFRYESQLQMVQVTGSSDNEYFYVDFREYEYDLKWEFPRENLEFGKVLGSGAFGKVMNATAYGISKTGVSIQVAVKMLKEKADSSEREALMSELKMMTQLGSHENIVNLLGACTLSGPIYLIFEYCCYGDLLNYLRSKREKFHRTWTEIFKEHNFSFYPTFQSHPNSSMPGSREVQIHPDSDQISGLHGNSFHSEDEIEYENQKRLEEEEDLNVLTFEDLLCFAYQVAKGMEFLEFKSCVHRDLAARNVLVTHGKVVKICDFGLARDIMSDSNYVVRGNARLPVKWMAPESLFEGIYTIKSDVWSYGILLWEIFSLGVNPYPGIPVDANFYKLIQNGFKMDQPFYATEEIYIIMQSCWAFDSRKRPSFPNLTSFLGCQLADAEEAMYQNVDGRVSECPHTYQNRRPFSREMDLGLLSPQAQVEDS
Nature of the assay: Z'-Lyte biochemical kinase assay (SelectScreen), FLT3. The note with it: at 50 nM, in duplicate. As for the experimental part:
as §3

Another assay has as its target PDGFRA (Homo sapiens, UniProt P16234). Put plainly: Z'-Lyte biochemical kinase assay (SelectScreen), PDGFRA. The note with it: at 50 nM, in duplicate. As for the experimental part:
as §3

For another assay, the target named is PDGFRB (Homo sapiens, UniProt P09619). Nature of the assay: Z'-Lyte biochemical kinase assay (SelectScreen), PDGFRB. The note with it: at 50 nM, in duplicate. As to the method:
as §3

[3] abbreviates: 32 vs CC395, 44 vs CC396, 108 vs CC397.

Like-named read-outs stand apart in the source and are kept apart here.

PDGFRB, sequence (P09619 33-1106): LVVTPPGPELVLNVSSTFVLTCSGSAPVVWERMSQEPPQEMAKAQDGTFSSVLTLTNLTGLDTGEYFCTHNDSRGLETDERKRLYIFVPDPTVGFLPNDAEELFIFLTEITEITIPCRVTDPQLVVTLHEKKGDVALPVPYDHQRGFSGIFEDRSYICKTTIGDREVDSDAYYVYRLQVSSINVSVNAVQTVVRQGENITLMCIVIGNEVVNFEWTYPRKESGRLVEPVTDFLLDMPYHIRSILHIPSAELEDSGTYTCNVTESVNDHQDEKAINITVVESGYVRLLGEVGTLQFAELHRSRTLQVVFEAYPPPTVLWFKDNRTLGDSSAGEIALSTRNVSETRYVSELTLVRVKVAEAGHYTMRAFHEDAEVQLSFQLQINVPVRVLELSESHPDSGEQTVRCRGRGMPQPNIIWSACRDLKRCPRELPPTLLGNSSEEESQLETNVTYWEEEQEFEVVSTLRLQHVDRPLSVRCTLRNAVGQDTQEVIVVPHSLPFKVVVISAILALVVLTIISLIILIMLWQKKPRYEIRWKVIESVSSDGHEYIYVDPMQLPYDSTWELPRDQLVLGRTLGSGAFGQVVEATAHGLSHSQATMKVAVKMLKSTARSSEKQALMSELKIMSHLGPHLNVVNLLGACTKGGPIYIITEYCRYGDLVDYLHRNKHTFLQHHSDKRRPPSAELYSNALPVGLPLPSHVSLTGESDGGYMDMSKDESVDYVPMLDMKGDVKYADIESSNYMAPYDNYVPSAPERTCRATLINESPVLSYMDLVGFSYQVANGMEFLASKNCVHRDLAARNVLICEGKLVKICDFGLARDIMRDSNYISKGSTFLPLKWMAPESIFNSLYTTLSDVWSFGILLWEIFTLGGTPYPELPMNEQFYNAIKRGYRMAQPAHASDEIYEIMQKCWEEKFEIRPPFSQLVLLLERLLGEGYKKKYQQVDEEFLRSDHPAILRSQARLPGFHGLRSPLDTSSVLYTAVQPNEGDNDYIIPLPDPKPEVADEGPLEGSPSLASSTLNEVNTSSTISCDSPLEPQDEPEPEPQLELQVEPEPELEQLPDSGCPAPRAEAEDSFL
PDGFRA, sequence (P16234 24-1089): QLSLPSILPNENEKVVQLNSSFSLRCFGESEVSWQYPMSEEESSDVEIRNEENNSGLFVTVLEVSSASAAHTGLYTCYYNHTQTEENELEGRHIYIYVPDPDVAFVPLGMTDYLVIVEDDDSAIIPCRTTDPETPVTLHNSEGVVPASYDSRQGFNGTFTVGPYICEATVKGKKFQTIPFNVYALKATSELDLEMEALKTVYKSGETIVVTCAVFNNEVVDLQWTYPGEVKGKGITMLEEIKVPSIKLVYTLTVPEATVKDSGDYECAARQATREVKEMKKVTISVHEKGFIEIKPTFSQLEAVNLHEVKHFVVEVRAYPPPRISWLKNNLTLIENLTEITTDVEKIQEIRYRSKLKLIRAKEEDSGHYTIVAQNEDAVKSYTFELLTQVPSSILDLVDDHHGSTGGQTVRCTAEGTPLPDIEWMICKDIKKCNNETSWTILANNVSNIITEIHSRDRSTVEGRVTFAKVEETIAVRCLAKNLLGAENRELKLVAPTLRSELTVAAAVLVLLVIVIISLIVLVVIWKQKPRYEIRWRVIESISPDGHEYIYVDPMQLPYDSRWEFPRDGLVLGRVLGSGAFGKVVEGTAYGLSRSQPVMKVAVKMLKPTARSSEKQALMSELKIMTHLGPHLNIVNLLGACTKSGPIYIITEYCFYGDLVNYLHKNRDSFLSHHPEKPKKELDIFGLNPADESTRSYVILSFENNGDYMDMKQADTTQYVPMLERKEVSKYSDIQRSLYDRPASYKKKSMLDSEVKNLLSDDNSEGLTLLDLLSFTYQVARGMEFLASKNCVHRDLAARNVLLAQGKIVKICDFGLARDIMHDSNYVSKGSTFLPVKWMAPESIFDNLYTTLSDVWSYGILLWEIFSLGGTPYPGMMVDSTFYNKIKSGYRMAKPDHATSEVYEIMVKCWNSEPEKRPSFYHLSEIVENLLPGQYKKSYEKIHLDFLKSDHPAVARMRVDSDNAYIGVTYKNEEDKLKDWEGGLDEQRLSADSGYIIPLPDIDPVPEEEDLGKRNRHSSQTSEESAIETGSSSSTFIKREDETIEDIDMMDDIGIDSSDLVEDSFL

On to `COc1cc2nccc(Oc3cccc(NC(=O)Cc4ccncc4)c3)c2cc1OC` [CC399, reference compound], for which the IC50 amounted to 5210 nM in the assay with M-NFS-60 cells (Table 10) and 3540 nM at CSF1R [1] (Table 10).
In the same order, the values of `COc1cc2nccc(Oc3cccc(CC(=O)NCc4ccncc4)c3)c2cc1OC` [CC400, reference compound] are 4220 nM and 2270 nM.
Regarding `COc1cc2nccc(Oc3cccc(CC(=O)Nc4ccncc4)c3)c2cc1OC` [CC401, reference compound], the IC50 with M-NFS-60 cells (Table 10) was 7510 nM; at CSF1R [1] (Table 10) it was 3850 nM.
With `COc1ccc2c(Oc3cccc(C(=O)NCc4ccncc4)c3C)ncnc2c1` [CC 395, 3-(7-methoxyquinazolin-4-yl)oxy-2-methyl-N-(4-pyridylmethyl)benzamide, reference compound], the IC50 with M-NFS-60 cells (Table 9) came out at 636 nM; at CSF1R [1] (Table 9), 926 nM.
In the same order, the values of `COc1ccc2c(Oc3cccc(C(=O)NCc4ccncc4F)c3C)ncnc2c1` [CC 396, N-[(3-fluoro-4-pyridyl)methyl]-3-(7-methoxyquinazolin-4-yl)oxy-2-methyl-benzamide, reference compound] are 415 nM and 600 nM.
Take `Cc1c(Oc2ncnc3cc(Cl)ccc23)cccc1C(=O)NCc1ccncc1` [CC 397, 3-(7-chloroquinazolin-4-yl)oxy-2-methyl-N-(4-pyridylmethyl)benzamide, reference compound]: the IC50 in the assay with M-NFS-60 cells (Table 9) came out at 1260 nM; on CSF1R [1] (Table 9), 4150 nM.
With `COc1ccc2c(Oc3cccc(C(=O)NCc4ccncc4)c3C)ccnc2c1` [compound 32, 3-[(7-methoxy-4-quinolyl)oxy]-2-methyl-N-(4-pyridylmethyl)benzamide], the IC50 with M-NFS-60 cells (Table 9) was 34 nM; at CSF1R [1] (Table 9) it was 26 nM.
`COc1ccc2c(Oc3cccc(C(=O)NCc4ccncc4F)c3C)ccnc2c1` [compound 44]: in the assay with M-NFS-60 cells (setting [3]), the “fold decrease in IC50 against M-NFS-60 compared to quinazoline-based comparative compound” value came out at 22 fold. Moreover, the IC50 is 19 nM in the assay with M-NFS-60 cells (Table 9) and 7 nM at CSF1R [1] (Table 9). Besides, on CSF1R [1] (setting [3]), the “fold decrease in IC50 against HEK-CSF1R-STAT5 compared to quinazoline-based comparative compound” value is reported as 86 fold.
On to `O=C(NCc1cccc(F)c1)c1ccc(F)c(Oc2ccnc3ccccc23)c1` [compound 101], for which the inhibition at 0.05 µM on Kit was determined as 27%; against CSF1R [2] it was 81%; against FLT3 it was 37%; at PDGFRA it was 25%; on PDGFRB, 40%.
In the same order, the values of `Cc1c(Oc2ccnc3ccccc23)cccc1C(=O)NCc1cccc(F)c1` [compound 103] are 7%, 73%, 8%, -5% and 13%.
The like results for `COc1cc2nccc(Oc3cccc(C(=O)NCc4cccc(F)c4)c3C)c2cc1OC` [compound 107] were, in that order, 11%, 85%, 19%, 22% and 25%.
As to `Cc1c(Oc2ccnc3cc(Cl)ccc23)cccc1C(=O)NCc1ccncc1` [compound 108, 3-[(7-chloro-4-quinolyl)oxy]-2-methyl-N-(4-pyridylmethyl)benzamide], the results for the IC50 with M-NFS-60 cells (Table 9) and on CSF1R [1] (Table 9) were 58 nM and 29 nM, respectively.
On to `CN(C)c1ccc2c(Oc3cccc(C(=O)NCc4ccncc4)c3)ccnc2c1` [compound 140], for which the inhibition at 0.05 µM was 3% on Kit; 83% against CSF1R [2]; 8% on FLT3; 11% on PDGFRA; 19% against PDGFRB.
In the same order, the values of `CNc1ccc2c(Oc3cc(C(=O)NCc4ccncc4)ccc3F)ccnc2c1` [compound 142] are 13%, 61%, 9%, 11% and 9%.
With `CN(C)c1ccc2c(Oc3cc(C(=O)NCc4ccncc4)ccc3F)ccnc2c1` [compound 143], the inhibition at 0.05 µM at Kit amounted to 8%; against CSF1R [2], 77%; at FLT3, 3%; on PDGFRA it was 14%; on PDGFRB, 32%.
In the same order, the values of `CNc1ccc2c(Oc3cccc(C(=O)NCc4ccncc4)c3C)ccnc2c1` [compound 148] are 0%, 75%, 7%, 4% and 12%.
In the same order, the values of `Cc1c(Oc2ccnc3cc(N4CCC4)ccc23)cccc1C(=O)NCc1ccncc1` [compound 150] are 3%, 81%, 12%, 8% and 15%.
In the same order, the values of `CNc1ccc2c(Oc3cccc(C(=O)NCc4cccc(F)c4)c3C)ccnc2c1` [compound 151] are 4%, 79%, 0%, 9% and 21%.
For `Cc1c(Oc2ccnc3cc(N(C)C)ccc23)cccc1C(=O)NCc1cccc(F)c1` [compound 152], the inhibition at 0.05 µM on Kit turned out to be 3%; at CSF1R [2] it was 77%; on FLT3, 13%; at PDGFRA, 10%; at PDGFRB it was 25%.
With `COc1cc2nccc(Oc3cccc(C(=O)NCc4ccncc4)c3)c2cc1OC` [compound 398], the IC50 amounted to 198 nM with M-NFS-60 cells (Table 10) and 58 nM on CSF1R [1] (Table 10). The “fold decrease in IC50 against M-NFS-60 compared to CC399” value in the assay on M-NFS-60 cells (vs CC399) is 26 fold. Moreover, the “fold decrease in IC50 against M-NFS-60 compared to CC400” value with M-NFS-60 cells (vs CC400) came to 21 fold. In addition, the “fold decrease in IC50 against M-NFS-60 compared to CC401” value in the assay on M-NFS-60 cells (vs CC401) is 38 fold. Also, the “fold decrease in IC50 against HEK-CSF1R-STAT5 compared to CC399” value on CSF1R [1] (vs CC399) is 61 fold. Also, the “fold decrease in IC50 against HEK-CSF1R-STAT5 compared to CC400” value on CSF1R [1] (vs CC400) came out at 39 fold. In addition, the “fold decrease in IC50 against HEK-CSF1R-STAT5 compared to CC401” value at CSF1R [1] (vs CC401) amounted to 67 fold.
